Measurements: patent US20240366770A1, “DEGRADATION OF BRUTON'S TYROSINE KINASE (BTK) BY CONJUGATION OF BTK INHIBITORS WITH E3 LIGASE LIGAND AND METHODS OF USE” (BeiGene Switzerland GmbH, priority 2021, published 2024)
Read-outs that look alike come from different tables or passages of the source.

Columns and labels:
[1] = test system: HEK-293 cells; experiment: HEK-293 cytotoxicity detection (CellTiter-Glo); format: cell-based
Summary of the method: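 Four-parameter logistic fitting of percent inhibition versus concentration gives IC50. Luminescent ATP read-out (CellTiter-Glo) after 72 h compound treatment of HEK-293 cells, 8 doses in 4-fold steps from a 5 mM 500× DMSO stock, final DMSO 0.2%.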

[2] = target: T1, BTK (Homo sapiens, UniProt Q06187); experiment: BTK degradation in TMD-8 cells (HTRF assay); format: cell-based; conditions: 6 h treatment, IC50 (DC50) of BTK degradation
T1 construct: High control=Cell group with added DMSO and without compound, indicating microplate readings without BTK degradation; endogenous in cells; host or cells: TMD-8
T1 sequence (Q06187 whole entry): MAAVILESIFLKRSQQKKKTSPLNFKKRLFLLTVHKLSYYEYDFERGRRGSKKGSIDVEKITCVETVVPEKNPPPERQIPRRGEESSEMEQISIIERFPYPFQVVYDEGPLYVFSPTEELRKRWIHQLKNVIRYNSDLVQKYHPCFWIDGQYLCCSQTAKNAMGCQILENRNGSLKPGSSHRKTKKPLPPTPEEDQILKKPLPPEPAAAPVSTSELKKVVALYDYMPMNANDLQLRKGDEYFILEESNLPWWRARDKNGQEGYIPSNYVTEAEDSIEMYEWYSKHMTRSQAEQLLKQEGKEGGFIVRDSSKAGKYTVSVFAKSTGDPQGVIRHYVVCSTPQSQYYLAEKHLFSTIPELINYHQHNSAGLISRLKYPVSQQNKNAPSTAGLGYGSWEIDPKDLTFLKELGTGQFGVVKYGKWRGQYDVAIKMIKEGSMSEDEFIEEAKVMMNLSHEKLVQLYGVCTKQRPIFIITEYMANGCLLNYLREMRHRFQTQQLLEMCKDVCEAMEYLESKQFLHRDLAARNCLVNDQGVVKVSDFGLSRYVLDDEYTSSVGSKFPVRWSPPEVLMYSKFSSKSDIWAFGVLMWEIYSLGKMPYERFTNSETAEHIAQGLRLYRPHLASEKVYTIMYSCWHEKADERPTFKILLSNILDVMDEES
Summary of the method: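 BTK remaining after compound treatment was measured by HTRF (337 nm excitation, 665/620 nm emission) in lysates of TMD-8 cells. Cells were exposed for 6 h to eight 6-fold-spaced concentrations in 0.2% DMSO. DC50 values were obtained from a Hill-equation fit (top, bottom, slope) of % inhibition.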

[3] = Homo sapiens, HEK-293 cells, 72 h incubation, CellTiter-Glo luminescence, IC50 of cell proliferation inhibition, read-out: HEK293

DC50 [2] [nM]	SMILES	IC50 [1, 3] [nM]	IC50 ([1]; Homo sapiens, HEK293, 72 h, read-out: HEK293 (nM)) [nM]	IC50 ([1]; HEK-293 cells, 72 h incubation, CellTiter-Glo luminescence, IC50 of cell proliferation inhibition, read-out: HEK293) [nM]
1.89	Cc1cc(-c2ncnc3[nH]c4cc(N5CCC6(CCN(CC7CCN(c8ccc(N9CCC(=O)NC9=O)cc8)CC7)CC6)CC5)ccc4c23)ccc1[C@@H](C)NC(=O)c1nc(C(C)(C)C)no1 [Example 114, (R)-3-(tert-butyl)-N-(1-(4-(7-(9-((1-(4-(2,4-dioxotetrahydropyrimidin-1(2H)-yl)phenyl)piperidin-4-yl)methyl)-3,9-diazaspiro[5.5]undecan-3-yl)-9H-pyrimido[4,5-b]indol-4-yl)-2-methylphenyl)ethyl)-1,2,4-oxadiazole-5-carboxamide]	923	–	–
0.509	Cc1cc(-c2ncnc3[nH]c4cc(N5CCN([C@H]6C[C@H](c7ccc(NC8CCC(=O)NC8=O)cc7)C6)CC5)ccc4c23)ccc1[C@@H](C)NC(=O)c1nc(C2(C)CC2)no1 (stereo partly drawn) [Example 116, N-((1R)-1-(4-(7-(4-((1r,3r)-3-(4-((2,6-dioxopiperidin-3-yl)amino)phenyl)cyclobutyl)piperazin-1-yl)-9H-pyrimido[4,5-b]indol-4-yl)-2-methylphenyl)ethyl)-3-(1-methylcyclopropyl)-1,2,4-oxadiazole-5-carboxamide]	> 10000	–	–
0.981	Cc1cc(-c2ncnc3[nH]c4cc(N5CCN([C@H]6C[C@H](c7ccc(N[C@@H]8CCC(=O)NC8=O)cc7)C6)CC5)ccc4c23)ccc1[C@@H](C)NC(=O)c1nc(C2(C)CC2)no1 [Example 117, N—((R)-1-(4-(7-(4-((1R,3r)-3-(4-(((R)-2,6-dioxopiperidin-3-yl)amino)phenyl)cyclobutyl)piperazin-1-yl)-9H-pyrimido[4,5-b]indol-4-yl)-2-methylphenyl)ethyl)-3-(1-methylcyclopropyl)-1,2,4-oxadiazole-5-carboxamide]	> 10000	–	–
2.51	Cc1cc(-c2ncnc3[nH]c4cc(N5CCN([C@H]6C[C@H](c7ccc(N[C@H]8CCC(=O)NC8=O)cc7)C6)CC5)ccc4c23)ccc1[C@@H](C)NC(=O)c1nc(C2(C)CC2)no1 [Example 119, N—((R)-1-(4-(7-(4-((1S,3r)-3-(4-(((S)-2,6-dioxopiperidin-3-yl)amino)phenyl)cyclobutyl)piperazin-1-yl)-9H-pyrimido[4,5-b]indol-4-yl)-2-methylphenyl)ethyl)-3-(1-methylcyclopropyl)-1,2,4-oxadiazole-5-carboxamide]	> 10000	–	–
1.25	Cc1cc(-c2ncnc3[nH]c4cc(N5CCN([C@H]6C[C@@H](c7ccc(N[C@H]8CCC(=O)NC8=O)cc7)C6)CC5)ccc4c23)ccc1[C@@H](C)NC(=O)c1nc(C2(C)CC2)no1 [Example 120, N—((R)-1-(4-(7-(4-((1R,3s)-3-(4-(((S)-2,6-dioxopiperidin-3-yl)amino)phenyl)cyclobutyl)piperazin-1-yl)-9H-pyrimido[4,5-b]indol-4-yl)-2-methylphenyl)ethyl)-3-(1-methylcyclopropyl)-1,2,4-oxadiazole-5-carboxamide]	> 10000	–	–
0.395	Cc1cc(-c2ncnc3[nH]c4cc(N5CCN(C6CN(C7CN(c8ccc(N9CCC(=O)NC9=O)cc8)C7)C6)CC5)ccc4c23)ccc1[C@@H](C)NC(=O)c1nc(C2(C)CC2)no1 [Example 122, (R)—N-(1-(4-(7-(4-(1′-(4-(2,4-dioxotetrahydropyrimidin-1(2H)-yl)phenyl)-[1,3′-biazetidin]-3-yl)piperazin-1-yl)-9H-pyrimido[4,5-b]indol-4-yl)-2-methylphenyl)ethyl)-3-(1-methylcyclopropyl)-1,2,4-oxadiazole-5-carboxamide]	> 10000	–	–
0.838	Cc1cc(-c2ncnc3[nH]c4cc(N5CCN(CCc6cccc7c6C6(CC6)C(=O)N7C6CCC(=O)NC6=O)CC5)ccc4c23)ccc1[C@@H](C)NC(=O)c1nc(C2(C)CC2)no1 (stereo partly drawn) [Example 124, N-((1R)-1-(4-(7-(4-(2-(1′-(2,6-dioxopiperidin-3-yl)-2′-oxospiro[cyclopropane-1,3′-indolin]-4′-yl)ethyl)piperazin-1-yl)-9H-pyrimido[4,5-b]indol-4-yl)-2-methylphenyl)ethyl)-3-(1-methylcyclopropyl)-1,2,4-oxadiazole-5-carboxamide]	> 10000	–	–
0.197	Cc1cc(-c2ncnc3[nH]c4cc(N5CCN(C6CC(c7ccc(N8CCC(=O)NC8=O)cc7)C6)CC5)ccc4c23)ccc1[C@@H](C)NC(=O)c1nc(C2(C)CC2)no1 (stereo partly drawn) [Example 125, (R)—N-(1-(4-(7-(4-(3-(4-(2,4-dioxotetrahydropyrimidin-1(2H)-yl)phenyl)cyclobutyl)piperazin-1-yl)-9H-pyrimido[4,5-b]indol-4-yl)-2-methylphenyl)ethyl)-3-(1-methylcyclopropyl)-1,2,4-oxadiazole-5-carboxamide]	> 10000	–	–
> 2000	C[C@H]1CC[C@@H](NC(=O)c2nc(C(C)(C)C)no2)CN1c1ncnc2[nH]c3cc(N4CCN(CC5CCN(c6ccc(N7CCC(=O)NC7=O)cc6)CC5)CC4)ccc3c12 [Example 129, 3-(tert-butyl)-N-((3R,6S)-1-(7-(4-((1-(4-(2,4-dioxotetrahydropyrimidin-1(2H)-yl)phenyl)piperidin-4-yl)methyl)piperazin-1-yl)-9H-pyrimido[4,5-b]indol-4-yl)-6-methylpiperidin-3-yl)-1,2,4-oxadiazole-5-carboxamide]	2040	–	–

The remaining lines, values behind:

SMILES	DC50 [2] [nM]	IC50 [1, 3] [nM]	IC50 ([1]; Homo sapiens, HEK293, 72 h, read-out: HEK293 (nM)) [nM]	IC50 ([1]; HEK-293 cells, 72 h incubation, CellTiter-Glo luminescence, IC50 of cell proliferation inhibition, read-out: HEK293) [nM]
Cc1cc(-c2ncnc3[nH]c4cc(N5CCN([C@H]6C[C@@H](c7ccc(NC8CCC(=O)NC8=O)cc7)C6)CC5)ccc4c23)ccc1[C@@H](C)NC(=O)c1nc(C2(C)CC2)no1 (stereo partly drawn) [Example 115, N-((1R)-1-(4-(7-(4-((1s,3s)-3-(4-((2,6-dioxopiperidin-3-yl)amino)phenyl)cyclobutyl)piperazin-1-yl)-9H-pyrimido[4,5-b]indol-4-yl)-2-methylphenyl)ethyl)-3-(1-methylcyclopropyl)-1,2,4-oxadiazole-5-carboxamide]	0.759	> 10000	–	–
Cc1cc(-c2ncnc3[nH]c4cc(N5CCN([C@H]6C[C@@H](c7ccc(N[C@@H]8CCC(=O)NC8=O)cc7)C6)CC5)ccc4c23)ccc1[C@@H](C)NC(=O)c1nc(C2(C)CC2)no1 [Example 118, N—((R)-1-(4-(7-(4-((1S,3s)-3-(4-(((R)-2,6-dioxopiperidin-3-yl)amino)phenyl)cyclobutyl)piperazin-1-yl)-9H-pyrimido[4,5-b]indol-4-yl)-2-methylphenyl)ethyl)-3-(1-methylcyclopropyl)-1,2,4-oxadiazole-5-carboxamide]	1.73	> 10000	–	–
Cc1cc(-c2ncnc3[nH]c4cc(N5CCN(C6CN(C7CN(c8ccc9c(c8)C(=O)N(C8CCC(=O)NC8=O)C9=O)C7)C6)CC5)ccc4c23)ccc1[C@@H](C)NC(=O)c1nc(C2(C)CC2)no1 (stereo partly drawn) [Example 121, N-((1R)-1-(4-(7-(4-(1′-(2-(2,6-dioxopiperidin-3-yl)-1,3-dioxoisoindolin-5-yl)-[1,3′-biazetidin]-3-yl)piperazin-1-yl)-9H-pyrimido[4,5-b]indol-4-yl)-2-methylphenyl)ethyl)-3-(1-methylcyclopropyl)-1,2,4-oxadiazole-5-carboxamide]	1.58	> 10000	–	–
Cc1cc(-c2ncnc3[nH]c4cc(N5CCN(CCc6ccc7c(c6)C6(CC6)C(=O)N7C6CCC(=O)NC6=O)CC5)ccc4c23)ccc1[C@@H](C)NC(=O)c1nc(C2(C)CC2)no1 (stereo partly drawn) [Example 123, N-((1R)-1-(4-(7-(4-(2-(1′-(2,6-dioxopiperidin-3-yl)-2′-oxospiro[cyclopropane-1,3′-indolin]-5′-yl)ethyl)piperazin-1-yl)-9H-pyrimido[4,5-b]indol-4-yl)-2-methylphenyl)ethyl)-3-(1-methylcyclopropyl)-1,2,4-oxadiazole-5-carboxamide]	0.192	–	> 10000	–
Cc1cc(-c2ncnc3[nH]c4cc(N5CCN(CC6CN(c7ccc(N8CCC(=O)NC8=O)cc7)C6)CC5)ccc4c23)ccc1[C@@H](C)NC(=O)c1nc(C2(C)CC2)no1 [Example 126, (R)—N-(1-(4-(7-(4-((1-(4-(2,4-dioxotetrahydropyrimidin-1(2H)-yl)phenyl)azetidin-3-yl)methyl)piperazin-1-yl)-9H-pyrimido[4,5-b]indol-4-yl)-2-methylphenyl)ethyl)-3-(1-methylcyclopropyl)-1,2,4-oxadiazole-5-carboxamide]	0.449	> 10000	–	–
COc1cc2c(cc1N1CCN([C@H]3C[C@@H](c4ccc(O[C@@H]5CCC(=O)NC5=O)cc4)C3)CC1)[nH]c1ncnc(-c3ccc([C@@H](C)NC(=O)c4nc(C(C)(C)C)no4)c(C)c3)c12 [Example 127, 3-(tert-butyl)-N—((R)-1-(4-(7-(4-((1S,3s)-3-(4-(((R)-2,6-dioxopiperidin-3-yl)oxy)phenyl)cyclobutyl)piperazin-1-yl)-6-methoxy-9H-pyrimido[4,5-b]indol-4-yl)-2-methylphenyl)ethyl)-1,2,4-oxadiazole-5-carboxamide]	2.49	> 10000	–	–
COc1cc2c(cc1N1CCN([C@H]3C[C@@H](c4ccc(O[C@H]5CCC(=O)NC5=O)cc4)C3)CC1)[nH]c1ncnc(-c3ccc([C@@H](C)NC(=O)c4nc(C(C)(C)C)no4)c(C)c3)c12 [Example 128, 3-(tert-butyl)-N—((R)-1-(4-(7-(4-((1R,3s)-3-(4-(((S)-2,6-dioxopiperidin-3-yl)oxy)phenyl)cyclobutyl)piperazin-1-yl)-6-methoxy-9H-pyrimido[4,5-b]indol-4-yl)-2-methylphenyl)ethyl)-1,2,4-oxadiazole-5-carboxamide]	2.12	–	–	> 10000
